Test [1] concerns the target T1, recombinant human NK3 receptor (Homo sapiens, UniProt P29371).
T1 construct: expressed in transfected cells; host or cells: HEK293 cells (transient expression), membranes
T1 sequence (P29371 1-465): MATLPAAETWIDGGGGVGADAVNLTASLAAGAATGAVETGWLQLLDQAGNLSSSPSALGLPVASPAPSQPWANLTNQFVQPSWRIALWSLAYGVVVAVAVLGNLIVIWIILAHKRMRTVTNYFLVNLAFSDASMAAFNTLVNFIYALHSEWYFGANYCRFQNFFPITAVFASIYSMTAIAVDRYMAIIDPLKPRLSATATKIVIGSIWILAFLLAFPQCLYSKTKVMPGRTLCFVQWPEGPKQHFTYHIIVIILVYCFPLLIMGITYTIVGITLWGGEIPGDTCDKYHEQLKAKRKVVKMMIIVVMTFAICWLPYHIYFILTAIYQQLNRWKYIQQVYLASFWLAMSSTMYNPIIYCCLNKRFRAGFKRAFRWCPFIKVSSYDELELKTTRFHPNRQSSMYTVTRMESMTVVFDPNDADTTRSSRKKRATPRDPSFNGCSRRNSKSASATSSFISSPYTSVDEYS
The test can be described thus: [3H]SR142801 competition binding assay. As to conditions: membranes from HEK293 cells transiently expressing recombinant human NK3 receptor; [3H]SR142801 radioligand; 75 min at RT; Ki by Cheng-Prussoff; read-out: Data Ki (hNK-3 receptor affinity). The method, boiled down: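 Membranes from HEK293 cells transiently expressing the receptor, 5 μg protein/well, in 50 mM Tris-HCl pH 7.4 with 4 mM MnCl2, 1 μM phosphoramidon, 0.1% BSA; nonspecific binding defined with 10 μM SB222200. Filtration and scintillation counting; IC50 from Hill fit, Ki by Cheng-Prussoff using saturation-derived KD, duplicates.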

For test [2] the following is noted: phase II trial, cited from earlier work.

Consider two molecules from patent publication US8324250B2 (Hoffmann-La Roche Inc., priority 2009, dated 2012).

For orientation: Ki means the equilibrium dissociation constant of an inhibitor or competing ligand from its target.

In the case of `C[C@H](NC(=O)C1(c2ccccc2)CCN(C(=O)N2CCN(c3ccc(F)cc3)CC2)CC1)C1CCCCC1` [Example 233, 1-[4-(4-Fluoro-phenyl)-piperazine-1-carbonyl]-4-phenyl-piperidine-4-carboxylic acid ((S)-1-cyclohexyl-ethyl)-amide], in test [1], the Ki is 5.3 nM.
Turning to `CC(=O)N(C)C1(c2ccccc2)CCN(CCC[C@]2(c3ccc(Cl)c(Cl)c3)CCCN(C(=O)c3ccccc3)C2)CC1` [SR 142,801, Osanetant], the “activity in the treatment of negative symptoms of schizophrenia” value in test [2] (negative symptoms (depression, anhedonia, social isolation, memory and attention deficits)) was “inactive”. Also, the “activity on positive symptoms of schizophrenia” value in test [2] (positive symptoms (altered behaviour, delusion, hallucinations, extreme emotions, excited motor activity, incoherent speech)) is reported as “active”.
